According to paper PMC4558140, “Irreversible dual inhibitory mode: the novel Btk inhibitor PLS-123 demonstrates promising anti-tumor activity in human B-cell lymphoma” (Oncotarget, 2015):

Target: Btk (Homo sapiens, UniProt Q06187)
Assay: crystal structure of human Btk in complex with PLS-123 (Figure 1B); IC50 also stated; Western blot of p-Tyr223/p-Tyr551 Btk in cells
Type: binding
From the text: crystal structure of human Btk in complex with PLS-123 (Figure 1B); IC50 also stated; Western blot of p-Tyr223/p-Tyr551 Btk in cells on Btk | Crystal structure of the human Btk in complex with PLS-123.

Sequence of Btk (Q06187 2-659): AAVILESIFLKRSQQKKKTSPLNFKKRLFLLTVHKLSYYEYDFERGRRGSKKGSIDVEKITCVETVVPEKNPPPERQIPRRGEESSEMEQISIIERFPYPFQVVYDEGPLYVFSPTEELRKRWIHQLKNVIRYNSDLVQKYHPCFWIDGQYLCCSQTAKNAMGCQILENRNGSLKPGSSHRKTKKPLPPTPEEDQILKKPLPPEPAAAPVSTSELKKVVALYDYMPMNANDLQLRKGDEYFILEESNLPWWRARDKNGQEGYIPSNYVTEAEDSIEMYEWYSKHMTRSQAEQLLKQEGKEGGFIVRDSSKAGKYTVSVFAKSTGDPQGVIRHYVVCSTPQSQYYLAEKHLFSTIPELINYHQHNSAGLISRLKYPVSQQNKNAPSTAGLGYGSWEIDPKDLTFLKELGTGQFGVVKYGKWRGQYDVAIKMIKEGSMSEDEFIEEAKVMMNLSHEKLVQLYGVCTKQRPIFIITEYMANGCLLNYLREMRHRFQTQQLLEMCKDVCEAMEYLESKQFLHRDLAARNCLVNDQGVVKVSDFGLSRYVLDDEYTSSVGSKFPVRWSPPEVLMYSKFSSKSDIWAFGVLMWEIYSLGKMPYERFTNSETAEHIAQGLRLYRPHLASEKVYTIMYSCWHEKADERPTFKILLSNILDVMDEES

C=CC(=O)NCC(=O)Nc1cccc(Nc2ncc(NC(=O)c3cc(NC(=O)c4cccc(C(F)(F)F)c4)ccc3C)cn2)c1 [PLS-123]
IC50: < 5 nM
